Assays:
[1] = test system: thermostable luciferase (Luc 146-1H2); test: Thermostable luciferase reaction with luciferin derivatives: light readings; format: biochemical; conditions: 100 µM each; result in words
Procedure: (§1) This stock was used to produce enzyme stock solution having of 200 µg/ml enzyme solution in 1 mg/ml BSA, 200 mM HEPES buffer, pH 8.0, 20 mM MgCl2.
(§2) Solutions were made using a 1 M DTT solution, pH adjusted to 8.0, a 20 mM Coenzyme A solution in water (both described in examples above), a 100 mM ATP solution and water to create the following solutions: Sol'A, 100 µM ATP; Sol'B, 100 µM ATP, 4 mM Coenzyme A; Sol'n C, 100 µM ATP, 400 mM DTT, and; Sol'n D, 100 µM ATP, 4 mM Coenzyme A and 400 mM DTT.
The following reactions were prepared (Table 47) Table 47
(§3) After assembly, the reactions were initiated by addition of 25 µl of the thermostable luciferase stock solution above and mixing the tube contents. A 50 µl sample was immediately removed and placed in a luminometer tube and the light read and the tube then replaced in a tube rack at room temperature. While the light reading was being taken, a 5 µl sample of the remaining reaction (which was kept at room temperature) was diluted into 495 µl of 50 mM BisTris, pH 6.5, 1 mg/ml BSA, 1 mM EDTA prechilled to 4°C and the tube mixed and placed on ice. The light produced by the samples in the luminometer tubes were re-read at 20, 40, 60, 90 and 120 minutes post enzyme addition. Additional 5 µl samples were taken and diluted as above at 60 and 120 minutes post enzyme addition. Once all these readings and samples were taken, 50 µl of the diluted samples was mixed with 50 µl of Steady Glo in luminometer tubes, the tubes incubated 10 minutes on ice then the light produced was read on a Turner TD 20/20 luminometer.

[2] = target: T1, QuantiLum Luciferase (Photinus pyralis, UniProt P08659); test: Scaffolds: light emission of luciferin derivatives with QuantiLum luciferase alone, + Co A, + DTT, + Co A and DTT; format: biochemical, firefly
T1 construct: purchased Promega Corporation E170
T1 sequence (P08659 whole entry): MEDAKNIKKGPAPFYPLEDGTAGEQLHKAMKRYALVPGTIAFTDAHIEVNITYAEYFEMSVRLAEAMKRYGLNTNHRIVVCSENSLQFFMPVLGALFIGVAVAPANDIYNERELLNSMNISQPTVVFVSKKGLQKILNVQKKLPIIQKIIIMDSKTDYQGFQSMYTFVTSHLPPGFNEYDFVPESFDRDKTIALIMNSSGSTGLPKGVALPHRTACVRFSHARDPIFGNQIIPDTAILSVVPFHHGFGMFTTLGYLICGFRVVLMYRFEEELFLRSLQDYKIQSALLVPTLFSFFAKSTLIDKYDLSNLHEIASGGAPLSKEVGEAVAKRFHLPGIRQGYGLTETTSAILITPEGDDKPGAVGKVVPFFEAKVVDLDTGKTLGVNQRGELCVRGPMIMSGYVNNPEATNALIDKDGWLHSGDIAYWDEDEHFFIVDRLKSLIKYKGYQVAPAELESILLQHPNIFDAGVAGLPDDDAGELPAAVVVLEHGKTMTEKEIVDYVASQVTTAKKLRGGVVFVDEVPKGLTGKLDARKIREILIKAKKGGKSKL
Procedure: The DTT, Coenzyme A, and QuantiLum stock solutions are the same as those described herein.
This solution was diluted 1:1 with water to produce an enzyme solution labeled "No addition." This solution was diluted 1:1 with 400 mM DTT, pH 8.0 to produce a solution labeled +DTT. This solution was diluted 1:1 with 4 mM Coenzyme A to produce a solution labeled + Co A. Finally, this solution was diluted 1:1 with a solution having both 4 mM Coenzyme A and 400 mM DTT to produce a solution labeled +Co A & DTT.
50 µl samples of these solutions were placed in the wells of luminometer microtiter plates, row A to row G, respeutivly. Row H of the plates was given 50 µl of water.
Reactions in these plates were initiated by addition of 50 µl of solution containing QuantiLum luciferase using a 12 channel micropipette. The solutions added to the rows were: columns 1, 5, and 9 - no addition solution; columns 2, 6, and 10 - + Co A solution; columns 3, 7, and 11 + DTT solution, and; columns 4, 8, and 12 - + Co A and DTT solution. After addition of the enzyme solution to the first row on every plate, a timer was started. After addition of the enzyme solution to the last row on each plate, the plate was sealed and read on a Veritas luminometer.

[3] = test system: thermostable luciferase (Luc 146-1H2); test: Residual thermostable luciferase activity after reaction with luciferin derivatives (Steady Glo); format: biochemical; conditions: Substrate 100
Procedure: as §1, §2, §3

[4] = Derivative Conc. 1.07, Co A + DTT
[5] = Derivative Conc. 3.13, Co A + DTT
[6] = Derivative Conc. 6.25, Co A + DTT
[7] = Derivative Conc. 12.5, Co A + DTT
[8] = Derivative Conc. 25, Co A + DTT
[9] = Derivative Conc. 50, Co A + DTT
[10] = Derivative Conc. 100, Co A + DTT

SMILES	light emission values ([2]; Derivative Conc. 1.07, Alone)	light emission values ([2]; Derivative Conc. 1.07, Co A)	light emission values [2, 4]	light emission values ([2]; Derivative Conc. 1.07, DTT)	light emission values ([2]; Derivative Conc. 3.13, Alone)	light emission values ([2]; Derivative Conc. 3.13, Co A)	light emission values [2, 5]	light emission values ([2]; Derivative Conc. 3.13, DTT)	light emission values ([2]; Derivative Conc. 6.25, Alone)	light emission values ([2]; Derivative Conc. 6.25, Co A)	light emission values ([2]; Derivative Conc. 6.25, DTT)	light emission values ([2]; Derivative Conc. 12.5, Alone)	light emission values ([2]; Derivative Conc. 12.5, Co A)	light emission values [2, 7]	light emission values ([2]; Derivative Conc. 12.5, DTT)	light emission values ([2]; Derivative Conc. 25, Alone)	light emission values ([2]; Derivative Conc. 25, Co A)	light emission values [2, 8]	light emission values ([2]; Derivative Conc. 25, DTT)	light emission values ([2]; Derivative Conc. 50, Alone)	also measured
CN(C)c1ccc2nc(C3=NC(C(=O)O)CS3)sc2c1 (stereo not drawn) [dimethyl amino luciferin]																					brightness of luciferase reaction relative to amino luciferin [1]: about half as bright
CN(Cc1ccccc1)c1ccc2nc(C3=NC(C(=O)O)CS3)sc2c1 (stereo not drawn) [methylbenzylaminoluciferin]	25907602	12863007	2037020	929977	34516960	23501282	9404429	8088743	43052788	35730272	21756222	50528576	50418220	30367190	36663612	61572912	63598896	42613860	50632712	73867336	light emission values [2, 6]: 19738584; light emission values ([2]; Derivative Conc. 50, Co A): 78390592; light emission values [2, 9]: 47965140; light emission values ([2]; Derivative Conc. 50, DTT): 54238960; light emission values ([2]; Derivative Conc. 100, Alone): 85579872; light emission values ([2]; Derivative Conc. 100, Co A): 89117784; light emission values [2, 10]: 48409604; light emission values ([2]; Derivative Conc. 100, DTT): 50806656
CCN(CC)c1ccc2nc(C3=NC(C(=O)O)CS3)sc2c1 (stereo not drawn) [diethylaminoluciferin]	656110	688887	20592	5192	2259570	1941060	93423	47727	4009797	3457051	165732	5418990	4485779	645536	682672	6763022	5623886	1067954	1304383	8176569	light emission values ([2]; Derivative Conc. 50, Co A): 7206157; light emission values [2, 9]: 1538668; light emission values ([2]; Derivative Conc. 50, DTT): 1826771; light emission values ([2]; Derivative Conc. 100, Alone): 9082149; light emission values [2, 10]: 1960750; light emission values ([2]; Derivative Conc. 100, DTT): 2180983
O=C(O)[C@H]1CSC(c2nc3ccc(OCCCl)cc3s2)=N1 [L' in-CEE]																					light values obtained upon addition of the diluted reaction samples into Steady Glo reagent ([3]; + Co A & DTT, Time Sample Taken 0 min): 1745; light values obtained upon addition of the diluted reaction samples into Steady Glo reagent ([3]; + Co A & DTT, Time Sample Taken 60 min): 1319; light values obtained upon addition of the diluted reaction samples into Steady Glo reagent ([3]; + Co A & DTT, Time Sample Taken 120 min): 1343; light values obtained upon addition of the diluted reaction samples into Steady Glo reagent ([3]; + Co A, Time Sample Taken 0 min): 1127; light values obtained upon addition of the diluted reaction samples into Steady Glo reagent ([3]; + Co A, Time Sample Taken 60 min): 1055; light values obtained upon addition of the diluted reaction samples into Steady Glo reagent ([3]; + Co A, Time Sample Taken 120 min): 770.5; light values obtained upon addition of the diluted reaction samples into Steady Glo reagent ([3]; + DTT, Time Sample Taken 0 min): 1168; light values obtained upon addition of the diluted reaction samples into Steady Glo reagent ([3]; + DTT, Time Sample Taken 60 min): 501.5; light values obtained upon addition of the diluted reaction samples into Steady Glo reagent ([3]; + DTT, Time Sample Taken 120 min): 1478; light values obtained upon addition of the diluted reaction samples into Steady Glo reagent ([3]; Alone, Time Sample Taken 0 min): 1262; light values obtained upon addition of the diluted reaction samples into Steady Glo reagent ([3]; Alone, Time Sample Taken 60 min): 1203; light values obtained upon addition of the diluted reaction samples into Steady Glo reagent ([3]; Alone, Time Sample Taken 120 min): 1273
COC(=O)[C@H]1CSC(c2ccc3cc(Oc4ccc(C(F)(F)F)cc4[N+](=O)[O-])ccc3n2)=N1 [GST #4]	1146	1533	1714	1102	1537	1635	2034	1458	1571	1562	1633	1692	1275	1891	1474	1413	1026	1640	1492	1598	light emission values [2, 6]: 1730; light emission values ([2]; Derivative Conc. 50, Co A): 1366; light emission values [2, 9]: 1729; light emission values ([2]; Derivative Conc. 50, DTT): 1354; light emission values ([2]; Derivative Conc. 100, Alone): 2119; light emission values ([2]; Derivative Conc. 100, Co A): 1853; light emission values [2, 10]: 1990; light emission values ([2]; Derivative Conc. 100, DTT): 1618
O=C(O)[C@H]1CSC(c2nc3ccc(OCCO)cc3s2)=N1 [2hydroxyethoxyluciferin ether]	8807	13847	22105	24491	10769	14986	32555	36967	14686	18532	48458	19586	21636	54630	61882	27356	28679	67303	76612	38444	light emission values [2, 6]: 42815; light emission values ([2]; Derivative Conc. 50, Co A): 39320; light emission values [2, 9]: 87170; light emission values ([2]; Derivative Conc. 50, DTT): 98407; light emission values ([2]; Derivative Conc. 100, Alone): 53804; light emission values ([2]; Derivative Conc. 100, Co A): 52640; light emission values [2, 10]: 94724; light emission values ([2]; Derivative Conc. 100, DTT): 128249

From patent EP1935986B1, “Luminogenic and fluorogenic compounds and methods to detect molecules or conditions” (priority 2005, dated 2006)
